Measured values published in the supplement of paper PMC10307832.

Assays:
Assay in all cases: relative viability (nuclei count vs DMSO), 5 days (fraction); higher = more cells survive
[1] = system: NCI-H358
Method in brief: (§1)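 Lung cancer cell lines were pin-tool dosed in 1536-well plates on the day after seeding, with either a lone drug or a fixed anchor-drug dose plus five library-drug doses (not always all listed) in √10 steps. Nuclei were counted on 4× images after 5 days. Relative viability is the ratio of treated-well to vehicle-well nuclei counts, with each value a median of duplicate plates.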

[2] = system: NCI-H1915
Method in brief: as §1

[3] = system: PC-3 [JPC-3]
Method in brief: as §1

[4] = system: LOU-NH91
Method in brief: as §1

[5] = system: NCI-H2126
Method in brief: as §1

[6] = system: NCI-H460
Method in brief: as §1

[7] = system: NCI-H522
Method in brief: as §1

[8] = system: NCI-H2347
Method in brief: as §1

[9] = system: NCI-H647
Method in brief: as §1

[10] = system: HOP-62
Method in brief: as §1

[11] = system: RERF-LC-KJ
Method in brief: as §1

[12] = system: NCI-H2342
Method in brief: as §1

[13] = system: NCI-H1755
Method in brief: as §1

[14] = system: HCC-15
Method in brief: as §1

[15] = system: A-427
Method in brief: as §1

[16] = system: NCI-H1734
Method in brief: as §1

[17] = system: LXF-289
Method in brief: as §1

[18] = system: LC-2-ad
Method in brief: as §1

[19] = system: SW 1573
Method in brief: as §1

[20] = system: SK-LU-1
Method in brief: as §1

[21] = system: NCI-H1792
Method in brief: as §1

[22] = system: NCI-H1975
Method in brief: as §1

[23] = system: HCC-78
Method in brief: as §1

Clc1ccc(Nc2nnc(Cc3ccncc3)c3ccccc23)cc1 [Vatalanib] + Nc1ncn([C@H]2C[C@H](O)[C@@H](CO)O2)c(=O)n1 [Decitabine] (partner 2 µM)
relative viability ([1]; first compound 0.04 µM): 0.23 | relative viability ([1]; first compound 0.1265 µM): 0.204 | relative viability ([1]; first compound 0.4 µM): 0.246 | relative viability ([1]; first compound 1.265 µM): 0.21 | relative viability ([1]; first compound 4 µM): 0.234 | relative viability ([2]; first compound 0.04 µM): 0.251 | relative viability ([2]; first compound 0.1265 µM): 0.257 | relative viability ([2]; first compound 0.4 µM): 0.273 | relative viability ([2]; first compound 1.265 µM): 0.257 | relative viability ([2]; first compound 4 µM): 0.276 | relative viability ([3]; first compound 0.04 µM): 0.843 | relative viability ([3]; first compound 0.1265 µM): 0.81 | relative viability ([3]; first compound 0.4 µM): 0.663 | relative viability ([3]; first compound 1.265 µM): 0.857 | relative viability ([3]; first compound 4 µM): 0.777 | relative viability ([4]; first compound 0.04 µM): 0.766 | relative viability ([4]; first compound 0.1265 µM): 0.81 | relative viability ([4]; first compound 0.4 µM): 0.766 | relative viability ([4]; first compound 1.265 µM): 0.824 | relative viability ([4]; first compound 4 µM): 0.823 | relative viability ([5]; first compound 0.04 µM): 0.514 | relative viability ([5]; first compound 0.1265 µM): 0.534 | relative viability ([5]; first compound 0.4 µM): 0.594 | relative viability ([5]; first compound 1.265 µM): 0.565 | relative viability ([5]; first compound 4 µM): 0.634 | relative viability ([6]; first compound 0.04 µM): 0.502 | relative viability ([6]; first compound 0.1265 µM): 0.481 | relative viability ([6]; first compound 0.4 µM): 0.482 | relative viability ([6]; first compound 1.265 µM): 0.47 | relative viability ([6]; first compound 4 µM): 0.495 | relative viability ([7]; first compound 0.04 µM): 0.711 | relative viability ([7]; first compound 0.1265 µM): 0.685 | relative viability ([7]; first compound 0.4 µM): 0.698 | relative viability ([7]; first compound 1.265 µM): 0.696 | relative viability ([7]; first compound 4 µM): 0.596 | relative viability ([8]; first compound 0.04 µM): 0.616 | relative viability ([8]; first compound 0.1265 µM): 0.62 | relative viability ([8]; first compound 0.4 µM): 0.624 | relative viability ([8]; first compound 1.265 µM): 0.602 | relative viability ([8]; first compound 4 µM): 0.64 | relative viability ([9]; first compound 0.04 µM): 0.4 | relative viability ([9]; first compound 0.1265 µM): 0.375 | relative viability ([9]; first compound 0.4 µM): 0.562 | relative viability ([9]; first compound 1.265 µM): 0.36 | relative viability ([9]; first compound 4 µM): 0.375 | relative viability ([10]; first compound 0.04 µM): 0.183 | relative viability ([10]; first compound 0.1265 µM): 0.216 | relative viability ([10]; first compound 0.4 µM): 0.223 | relative viability ([10]; first compound 1.265 µM): 0.239 | relative viability ([10]; first compound 4 µM): 0.205 | relative viability ([11]; first compound 0.04 µM): 0.737 | relative viability ([11]; first compound 0.1265 µM): 0.739 | relative viability ([11]; first compound 0.4 µM): 0.866 | relative viability ([11]; first compound 1.265 µM): 0.599 | relative viability ([11]; first compound 4 µM): 0.665 | relative viability ([12]; first compound 0.04 µM): 0.611 | relative viability ([12]; first compound 0.1265 µM): 0.781 | relative viability ([12]; first compound 0.4 µM): 0.718 | relative viability ([12]; first compound 1.265 µM): 0.736 | relative viability ([12]; first compound 4 µM): 0.641 | relative viability ([13]; first compound 0.04 µM): 0.691 | relative viability ([13]; first compound 0.1265 µM): 0.76 | relative viability ([13]; first compound 0.4 µM): 0.745 | relative viability ([13]; first compound 1.265 µM): 0.707 | relative viability ([13]; first compound 4 µM): 0.728 | relative viability ([14]; first compound 0.04 µM): 0.607 | relative viability ([14]; first compound 0.1265 µM): 0.689 | relative viability ([14]; first compound 0.4 µM): 0.716 | relative viability ([14]; first compound 1.265 µM): 0.627 | relative viability ([14]; first compound 4 µM): 0.665 | relative viability ([15]; first compound 0.04 µM): 0.6 | relative viability ([15]; first compound 0.1265 µM): 0.544 | relative viability ([15]; first compound 0.4 µM): 0.601 | relative viability ([15]; first compound 4 µM): 0.535 | relative viability ([16]; first compound 0.04 µM): 0.575 | relative viability ([16]; first compound 0.1265 µM): 0.51 | relative viability ([16]; first compound 0.4 µM): 0.592 | relative viability ([16]; first compound 1.265 µM): 0.477 | relative viability ([16]; first compound 4 µM): 0.518 | relative viability ([17]; first compound 0.04 µM): 0.368 | relative viability ([17]; first compound 0.1265 µM): 0.38 | relative viability ([17]; first compound 0.4 µM): 0.445 | relative viability ([17]; first compound 1.265 µM): 0.361 | relative viability ([17]; first compound 4 µM): 0.352 | relative viability ([18]; first compound 0.04 µM): 0.803 | relative viability ([18]; first compound 0.1265 µM): 0.753 | relative viability ([18]; first compound 0.4 µM): 0.768 | relative viability ([18]; first compound 1.265 µM): 0.776 | relative viability ([18]; first compound 4 µM): 0.861 | relative viability ([19]; first compound 0.04 µM): 0.541 | relative viability ([19]; first compound 0.1265 µM): 0.482 | relative viability ([19]; first compound 0.4 µM): 0.39 | relative viability ([19]; first compound 1.265 µM): 0.455 | relative viability ([19]; first compound 4 µM): 0.493 | relative viability ([20]; first compound 0.04 µM): 0.614 | relative viability ([20]; first compound 0.1265 µM): 0.584 | relative viability ([20]; first compound 0.4 µM): 0.668 | relative viability ([20]; first compound 1.265 µM): 0.668 | relative viability ([20]; first compound 4 µM): 0.52 | relative viability ([21]; first compound 0.04 µM): 0.614 | relative viability ([21]; first compound 0.1265 µM): 0.465 | relative viability ([21]; first compound 0.4 µM): 0.608 | relative viability ([21]; first compound 1.265 µM): 0.515 | relative viability ([21]; first compound 4 µM): 0.55 | relative viability ([22]; first compound 0.04 µM): 0.423 | relative viability ([22]; first compound 0.1265 µM): 0.378 | relative viability ([22]; first compound 0.4 µM): 0.401 | relative viability ([22]; first compound 1.265 µM): 0.391 | relative viability ([22]; first compound 4 µM): 0.397 | relative viability ([23]; first compound 0.04 µM): 0.744 | relative viability ([23]; first compound 0.1265 µM): 0.723 | relative viability ([23]; first compound 0.4 µM): 0.773 | relative viability ([23]; first compound 1.265 µM): 0.719 | relative viability ([23]; first compound 4 µM): 0.684
